Results on one molecule are retold here after patent publication US20240190866A1, “POLYHYDROXYLATED INDOLIZIDINE AND PYRROLIZIDINE DERIVATIVES AND USES THEREOF” (Academia Sinica, priority 2021, published 2024).

pIC50: −log10 of the molar value.

For assay [1], the system named is HepG2 cells. As to the kind of experiment: Surface binding of lectin by fluorescence microscopy. The class given is cell-based, human. Particulars: HepG2, 10 μM, 48 h.
For assay [2], the system named is HepG2 cells. As to the kind of experiment: Transwell migration assay. Type of assay: cell-based, human. The note with it: 18 hours. Here is the method:
(§1) Chemotaxis experiments with human HepG2Huh7, or PANC-1 cells were assayed by using transwells (Millipore). The cells to be analyzed (5×10^4 cells/well) were seeded in the upper chambers of the 24-well plate in 400 μL serum-free medium. FBS (10%) was used as the chemoattractant with or without different concentrations of the test compound (e.g., ACK900, ACK901, ACK902) in the lower chamber, and the plate was incubated under standard conditions. After incubation for 18 hours, the media in the upper chambers were aspirated and washed with phosphate-buffered saline (PBS) twice. Both non-migrated and migrated cells were fixed with 4% paraformaldehyde (PFA) for 30 minutes at room temperature, stained with 2% crystal violet solution. The non-invading cells were removed from the upper surface of the insert membrane with a cotton swab. The images were taken using an imaging reader (Cytation 5, BioTek, VT, U.S.A.) and analyzed using NIH ImageJ software. Percent in the results represent percent of initial number of cells in the migrating and nonmigrating Cell fractions.

The test system of the next assay is PANC-1 cells. As to the kind of experiment: Transwell migration assay. Particulars: PANC-1, transwell, 18 hours. The class given is cell-based, human. Here is the method:
as §1

The test system of assay [3] is Huh7 cells. As to the kind of experiment: Transwell migration assay. The class given is cell-based, human. The note with it: 18 hours. Here is the method: as §1
The next assay deals with MDA-MB-231 cells. As to the kind of experiment: Anti-proliferative activity assay (CellTiter-Glo). The note with it: 48 h. The class given is cell-based, human. Here is the method: (§2) Human liver cancer HepG2 cells and Huh7 cells, breast cancer MDA-MB-231 cells, pancreatic cancer PANC-1 cells, and non-small cell lung (NSCL) cancer H1975 cells were maintained in Dulbecco's Modified Eagle Medium supplemented containing 10% fetal bovine serum (FBS), 100 units/ml penicillin and […] streptomycin in 37° C. incubator with 5% CO2.
(§3) Anti-proliferative activity of HepG2, Huh7 or PANC-1 cells was determined by 3-(4,5-dimethylthiazol-2-yl)-2,5-diphenyltetrazolium bromide (MTT) assay, while that of H1975 or MDA-MB-231 cells was determined by luminescent assay with the aid of commercial kit CellTiter-Glo® (Promega).
(§4) For H1975 and MDA-MB-231, cells were respectively seeded at 5×10^3 cells/well in 96-well plates and maintained for 14-16 hours. Cells were treated with dimethylsulfoxide (DMSO) or test compounds in varied concentrations for 48 h. Cell viability was monitored using Cell-TiterGlo (Promega), a kit that measures the quantity of ATP present in the cell culture, an indicator of metabolically active cells. The IC50 values of death cell lines were calculated accordingly.
On the technique in general: ATP-based viability assays read luminescence as a measure of living cells.

The test system of the next assay is H1975 cells. As to the kind of experiment: Anti-proliferative activity assay (CellTiter-Glo). Particulars: 48 h. Type of assay: cell-based, human. How it is done: as §2, §3, §4
Assay [4] has as its target human lysosomal α-mannosidase (α-hLM) (Homo sapiens (Human), UniProt O00754). As to the kind of experiment: α-Mannosidase (α-hLM) activity assay, 4-MU-α-D-mannopyranoside substrate. Particulars: pH 4.6, 37° C., 1 h. Type of assay: biochemical. How it is done: (§5) Compounds were diluted to give the final concentration of 100 μM and mixed with 4-MU-α-D-mannopyranoside as substrate and human Golgi α-mannosidase II in phosphate buffer (0.1 M Sodium phosphate dibasic, pH 7.0) or human lysosomal α-mannosidase in citric phosphate buffer (0.1 M Sodium phosphate monobasic monohydrate, 0.5 mM citric acid monohydrate, pH 4.6). The assay was carried out at 37° C. for a certain time (1 h for α-hLM, 2 h for α-hGMII). Stop solution (0.5 M K2CO3(aq), pH 10.8) was then added to the reactions and the fluorescence was determined at 355 nm excitation and 460 nm emission (SpectraMax M5, Molecular Devices). Inhibition was performed as relative enzyme activity to control. The active compounds were selected for libraries preparation and further tested at lower concentration to determine their IC50 values. The assays performed in 384-wells of the microtiter plates.

Assay [5] deals with HepG2 cells. As to the kind of experiment: Transwell invasion assay. The class given is cell-based, human. How it is done: as §1
Assay [6] deals with Huh7 cells. As to the kind of experiment: Surface binding of lectin by fluorescence microscopy. The class given is cell-based, human. Particulars: Huh7, 10 μM, 48 h.
The target of assay [7] is human Golgi α-mannosidase II (α-hGMII) (Homo sapiens (Human), UniProt Q16706). As to the kind of experiment: Golgi α-mannosidase II (α-hGMII) activity assay, 4-MU-α-D-mannopyranoside substrate. The note with it: pH 7.0, 37° C., 2 h. The class given is biochemical. Here is the method: as §5
human Golgi α-mannosidase II (α-hGMII), sequence (Q16706 whole entry): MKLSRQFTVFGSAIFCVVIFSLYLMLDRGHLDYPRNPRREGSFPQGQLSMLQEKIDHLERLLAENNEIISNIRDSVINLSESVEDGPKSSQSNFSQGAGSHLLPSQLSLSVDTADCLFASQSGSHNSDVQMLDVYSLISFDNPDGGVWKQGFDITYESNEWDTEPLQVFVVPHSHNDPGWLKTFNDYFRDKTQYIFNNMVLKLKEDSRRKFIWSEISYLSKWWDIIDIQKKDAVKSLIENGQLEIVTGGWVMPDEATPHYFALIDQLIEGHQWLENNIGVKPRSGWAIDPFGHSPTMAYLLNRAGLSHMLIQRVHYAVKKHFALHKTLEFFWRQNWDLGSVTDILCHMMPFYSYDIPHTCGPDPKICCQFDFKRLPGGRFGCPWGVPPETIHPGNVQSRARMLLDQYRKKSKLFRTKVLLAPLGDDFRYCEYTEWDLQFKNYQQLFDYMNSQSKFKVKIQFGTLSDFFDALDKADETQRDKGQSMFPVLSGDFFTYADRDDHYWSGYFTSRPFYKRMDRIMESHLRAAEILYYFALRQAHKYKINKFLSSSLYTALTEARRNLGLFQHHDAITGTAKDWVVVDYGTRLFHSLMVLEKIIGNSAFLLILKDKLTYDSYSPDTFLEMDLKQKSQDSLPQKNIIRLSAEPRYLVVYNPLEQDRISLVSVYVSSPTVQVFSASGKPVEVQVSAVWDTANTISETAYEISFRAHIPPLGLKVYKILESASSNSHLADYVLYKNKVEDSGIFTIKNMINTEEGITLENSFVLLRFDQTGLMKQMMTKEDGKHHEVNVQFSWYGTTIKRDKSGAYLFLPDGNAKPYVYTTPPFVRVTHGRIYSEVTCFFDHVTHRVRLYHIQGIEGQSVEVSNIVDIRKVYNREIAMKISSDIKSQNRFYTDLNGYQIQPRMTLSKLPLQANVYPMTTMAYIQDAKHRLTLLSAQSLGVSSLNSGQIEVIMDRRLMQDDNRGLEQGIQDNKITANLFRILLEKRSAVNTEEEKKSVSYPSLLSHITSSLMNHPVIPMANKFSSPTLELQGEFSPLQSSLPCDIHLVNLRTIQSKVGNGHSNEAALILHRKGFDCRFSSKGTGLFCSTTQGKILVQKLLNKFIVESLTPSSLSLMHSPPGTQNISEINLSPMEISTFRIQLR

human lysosomal α-mannosidase (α-hLM), sequence (O00754 50-1011): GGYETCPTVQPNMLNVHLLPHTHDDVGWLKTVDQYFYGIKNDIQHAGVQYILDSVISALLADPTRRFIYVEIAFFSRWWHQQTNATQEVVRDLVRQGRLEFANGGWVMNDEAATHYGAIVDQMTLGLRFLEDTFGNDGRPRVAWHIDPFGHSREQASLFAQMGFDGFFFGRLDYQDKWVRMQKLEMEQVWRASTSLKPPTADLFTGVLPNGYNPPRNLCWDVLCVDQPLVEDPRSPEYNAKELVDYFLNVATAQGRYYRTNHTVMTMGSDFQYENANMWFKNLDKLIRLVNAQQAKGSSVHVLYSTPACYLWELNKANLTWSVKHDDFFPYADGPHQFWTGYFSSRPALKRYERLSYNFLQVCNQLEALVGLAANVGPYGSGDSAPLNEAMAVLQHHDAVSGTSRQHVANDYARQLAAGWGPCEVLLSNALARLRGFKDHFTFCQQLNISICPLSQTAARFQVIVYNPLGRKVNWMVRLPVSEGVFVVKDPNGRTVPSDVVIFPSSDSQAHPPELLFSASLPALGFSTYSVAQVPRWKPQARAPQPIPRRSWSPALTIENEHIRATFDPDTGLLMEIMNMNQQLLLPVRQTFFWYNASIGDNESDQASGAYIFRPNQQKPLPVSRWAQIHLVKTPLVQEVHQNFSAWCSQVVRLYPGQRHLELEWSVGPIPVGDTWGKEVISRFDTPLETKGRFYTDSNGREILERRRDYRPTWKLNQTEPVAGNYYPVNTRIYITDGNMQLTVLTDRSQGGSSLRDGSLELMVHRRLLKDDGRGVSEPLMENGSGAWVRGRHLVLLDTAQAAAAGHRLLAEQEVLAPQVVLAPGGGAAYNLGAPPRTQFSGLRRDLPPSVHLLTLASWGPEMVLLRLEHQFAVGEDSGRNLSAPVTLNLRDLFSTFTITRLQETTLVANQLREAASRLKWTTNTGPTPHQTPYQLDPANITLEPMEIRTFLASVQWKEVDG

A word on the pIC50: it is the IC50 on a negative log10 scale, so that one unit is a factor of ten. `CCC[C@H]1CC[C@H](c2ccc(NC(=S)NC[C@@H]3[C@@H](O)[C@@H](O)[C@H]4[C@H](O)CCCN43)cc2)CC1` [ACK900]: the “surface binding of Concanavalin A (ConA)” value in the assay with HepG2 cells [1] and in the assay with Huh7 cells [6] was “markedly increased” in each case. Moreover, the “surface binding of galectin-1 (Gal1)” value with HepG2 cells [1] and with Huh7 cells [6] was “substantially decreased” each time. The migratory capability entry in the assay on HepG2 cells [2], in the assay with PANC-1 cells and with Huh7 cells [3] was “remarkably decreased” throughout. Also, the pIC50 in the assay with MDA-MB-231 cells was 5.34; with H1975 cells it was 4.86; in assay [4], 4.85; in assay [7] it was 7.00. The invasive capability entry in the assay on HepG2 cells [5] is on record as “remarkably decreased”.
